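1) Cells in 96-well plates. 2) Compound, 48 h, 5 concentrations. 3) Linear interpolation between surrounding doses. 4) Unreached endpoint = highest concentration. GI50 marks 50% less growth.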 Activity calls are given as the source filed them. No stated cut-off is given here; in the data, active = GI50 up to about 1.1 µM and inactive = higher.
What was measured:
Experiment in all cases: NCI anticancer screen, dose series, 48 h
[1] = test system: MOLT-4
[2] = test system: CAKI-1
[3] = test system: A549
[4] = test system: OVCAR-5
[5] = test system: SR
[6] = test system: NCI-H23
[7] = test system: 786-0
[8] = test system: SK-MEL-2
[9] = test system: OVCAR-4
[10] = test system: Malme-3M
[11] = test system: A498
[12] = test system: SF-539
[13] = test system: TK-10
[14] = test system: Hs-578T
[15] = test system: SF-268
[16] = test system: HL-60
[17] = test system: DU-145
[18] = test system: BT-549
[19] = test system: SK-MEL-5
[20] = test system: SK-OV-3

Row | SMILES | GI50 [1] | GI50 [2] | GI50 [3] | GI50 [4] | GI50 [5] | GI50 [6] | GI50 [7] | GI50 [8] | GI50 [9] | GI50 [10] | GI50 [11] | GI50 [12] | GI50 [13] | GI50 [14] | GI50 [15] | GI50 [16] | GI50 [17] | GI50 [18] | GI50 [19] | GI50 [20]
1 | CC1OC2/C=C\CC(O)C(C)(C)C3CCC(C)C4(O3)O[B-]35OC(C(=O)OC1C2)C1(OC(CCC1C)C(C)(C)C(O)C/C=C\C1CC(OC(=O)C4O3)C(C)O1)O5 (stereo not given) | 1.01 µM (active) | 7.6 µM (inactive) | 2.55 µM (inactive) | 7.45 µM (inactive) | 1.78 µM (inactive) | 1.85 µM (inactive) | 2.83 µM (inactive) | 1.54 µM (inactive) | 7.76 µM (inactive) | 1.86 µM (inactive) | 2.45 µM (inactive) | 2.42 µM (inactive) | 2.97 µM (inactive) | 1.54 µM (inactive) | 2.02 µM (inactive) | 1.06 µM (active) | 7.96 µM (inactive) | 2.54 µM (inactive) | 2.21 µM (inactive) | 4.47 µM (inactive)
2 | O=c1ccc2cc(O)c(O)cc2o1 [ESCULETIN] | > 100 µM (inactive) | > 100 µM (inactive) | > 100 µM (inactive) | > 100 µM (inactive) | > 100 µM (inactive) | > 100 µM (inactive) | > 100 µM (inactive) | > 100 µM (inactive) | 97.3 µM (inactive) | > 100 µM (inactive) | > 100 µM (inactive) | > 100 µM (inactive) | > 100 µM (inactive) | > 100 µM (inactive) | > 100 µM (inactive) | > 100 µM (inactive) | > 100 µM (inactive) | > 100 µM (inactive) | > 100 µM (inactive) | > 100 µM (inactive)

Reference: ChEMBL document CHEMBL1201862, “PubChem BioAssay data set” (2004)
